Test in all cases: DTP human tumour cell line panel, 48 h
Assay [1] deals with A498.
The subject of assay [2] is BT-549.
For assay [3], the system named is DU-145.
Assay [4] concerns HCT-116.
In assay [5] the test system is HOP-62.
The test system of assay [6] is KM12.
In assay [7] the test system is LOX IMVI.
The subject of assay [8] is MCF7.
Assay [9] has as its system MDA-N.
Assay [10] concerns NCI-H226.
The subject of assay [11] is NCI-H522.
The test system of assay [12] is OVCAR-5.
The test system of assay [13] is PC-3.
Assay [14] concerns SN12C.
Assay [15] has as its system SNB-75.
For assay [16], the system named is SW-620.
Assay [17] relates to U-251.
The subject of assay [18] is UACC-62.
Assay [19] deals with T47D.

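Following 48 hours of exposure in 96-well plates, responses at five concentrations were used to interpolate endpoints linearly. Abbreviation: GI50, concentration required for 50% inhibition of growth.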 The source made the active and inactive calls. Cut-off read from the data, not from the text of the source: active = GI50 up to about 1.1 µM and inactive = higher.

A word on the GI50: it is the concentration giving 50% growth inhibition. With `ClC1=NSSC1(Cl)Cl`, the GI50 was > 100 µM (inactive) in assay [1]; 41.6 µM (inactive) in assay [2]; > 100 µM (inactive) in assay [3]; 30.6 µM (inactive) in assay [4]; > 100 µM (inactive) in [5]; 71.1 µM (inactive) in assay [6]. Moreover, the GI50 in assay [7] is 40.8 µM (inactive); in assay [8], 32.3 µM (inactive); in [9], 27.7 µM (inactive); in [10] it was > 100 µM (inactive); in assay [11] it was 7.6 µM (inactive); in [12], 29.9 µM (inactive). Besides, the GI50 is 61.7 µM (inactive) in assay [13]; 22.1 µM (inactive) in [14]; 41.7 µM (inactive) in assay [15]; 20.7 µM (inactive) in assay [16]; 56.6 µM (inactive) in assay [17]; 45.7 µM (inactive) in assay [18].
Consider `Cc1csc(NC23CC4CC(CC(C4)C2)C3)[n+]1C(P(=O)([O-])O)P(=O)(O)O` (stereo unspecified), for which the GI50 in [1], in assay [2], in assay [3], in [4], in [5] and in assay [6] was > 100 µM (inactive) each time. Further, the GI50 in [7], in assay [8], in assay [9], in [10], in assay [11] and in [12] was > 100 µM (inactive) throughout. The GI50 in assay [13], in assay [15], in [16], in assay [17] and in assay [18] was > 100 µM (inactive) each time.
Take `Nc1ccc(Nc2c3ccccc3nc3ccccc23)cc1`: the GI50 in assay [2] was > 10 µM (inactive); in assay [3] it was 4.92 µM (inactive); in assay [4] it was 3.15 µM (inactive); in assay [5], 4.32 µM (inactive); in assay [6] it was 8.05 µM (inactive); in assay [7] it was 1.06 µM (active). In addition, the GI50 in [8] was 2.2 µM (inactive); in assay [9] it was 5.12 µM (inactive); in [10], 1.38 µM (inactive); in assay [11], 4.79 µM (inactive); in assay [12], 5.52 µM (inactive); in assay [13], 4.75 µM (inactive). Further, the GI50 in [14] is 2.88 µM (inactive); in assay [16], 2.26 µM (inactive); in assay [19], 6.49 µM (inactive); in [17], 4.4 µM (inactive); in [18], 1.77 µM (inactive).
Take `C/C(=N\Nc1nc2cc(Cl)ccc2s1)c1ccccn1`: the GI50 in assay [1] is 1.61 µM (inactive); in assay [2], 4.9 µM (inactive); in assay [4] it was 0.301 µM (active); in [5] it was 0.904 µM (active); in assay [6] it was 0.63 µM (active); in [7] it was 0.459 µM (active). In addition, the GI50 is 0.0867 µM (active) in [8]; 1.73 µM (inactive) in assay [9]; 0.32 µM (active) in assay [10]; 0.189 µM (active) in [11]; 2.77 µM (inactive) in assay [12]; 1.35 µM (inactive) in assay [13]. Further, the GI50 is 0.372 µM (active) in assay [14]; 1.72 µM (inactive) in [15]; 0.817 µM (active) in [16]; 0.402 µM (active) in assay [19]; 0.877 µM (active) in [17]; 0.673 µM (active) in [18].
Regarding `CC(C)c1c(O)c(O)c2c(c1O)C(=O)C(O)=C1C(C)(C)CCC[C@@]12C`, the GI50 in assay [1] is 3.84 µM (inactive); in assay [2], 3.29 µM (inactive); in assay [3], 4.13 µM (inactive); in [4] it was 3.4 µM (inactive); in assay [5], 8.61 µM (inactive); in assay [6], 3.44 µM (inactive). The GI50 was 4.32 µM (inactive) in assay [7]; 3.13 µM (inactive) in assay [8]; 3.01 µM (inactive) in assay [10]; 3.56 µM (inactive) in assay [11]; 5.18 µM (inactive) in [12]; 2.64 µM (inactive) in [13]. Besides, the GI50 in [14] was 3.23 µM (inactive); in [15], 3.05 µM (inactive); in [16], 3.29 µM (inactive); in assay [19], 3.24 µM (inactive); in assay [17], 2.77 µM (inactive); in [18], 3.86 µM (inactive).
With `O=C(Sc1c(-c2ccccc2)c(=O)n(-c2ccccc2)c(=S)n1-c1ccccc1)c1cccs1`, the GI50 is > 100 µM (inactive) in assay [2]; > 100 µM (inactive) in assay [3]; 56.2 µM (inactive) in assay [4]; > 100 µM (inactive) in [5]; > 100 µM (inactive) in [6]; 11.4 µM (inactive) in [7]. In addition, the GI50 is 50.4 µM (inactive) in assay [8]; 70 µM (inactive) in [9]; > 100 µM (inactive) in assay [10]; 29.2 µM (inactive) in assay [11]; > 100 µM (inactive) in [12]; 73.8 µM (inactive) in assay [13]. The GI50 in assay [14] is 50.4 µM (inactive); in assay [15], 29.6 µM (inactive); in [16], 24.6 µM (inactive); in assay [19], > 100 µM (inactive); in assay [17], 84.1 µM (inactive); in assay [18], > 10 µM (inactive).
For the molecule `OCCN(/N=C\c1ccc2ccccc2c1)C1=NCCN1`, the GI50 was 42.8 µM (inactive) in assay [2]; 31.6 µM (inactive) in assay [3]; 26.7 µM (inactive) in assay [4]; 42.6 µM (inactive) in assay [5]; 38.2 µM (inactive) in assay [6]; 16.3 µM (inactive) in assay [7]. Further, the GI50 is 36.1 µM (inactive) in [8]; 17.2 µM (inactive) in [9]; 12.9 µM (inactive) in assay [10]; 24.2 µM (inactive) in [12]; 24.9 µM (inactive) in [13]; 25.3 µM (inactive) in [14]. The GI50 was 20.7 µM (inactive) in assay [15]; 21.1 µM (inactive) in assay [16]; 29.6 µM (inactive) in assay [19]; 24.9 µM (inactive) in assay [17]; 21.3 µM (inactive) in [18].
In the case of `CCOc1nc(-c2ccccc2)cc(-c2ccc(N3CCOCC3)cc2)c1C#N`, the GI50 in assay [1], in [2], in [3], in assay [4], in [5] and in assay [6] was > 100 µM (inactive) in each case. For the same molecule, the GI50 in [7], in assay [8], in assay [9], in assay [10], in assay [11] and in assay [12] was > 100 µM (inactive) each time. In addition, the GI50 in assay [13], in assay [14], in [15], in assay [16] and in assay [17] was > 100 µM (inactive) each time.
For `C/C(=N\Nc1nc2ccccc2n1C)c1cc2ccccc2cn1`, the GI50 in [1] is 0.194 µM (active); in assay [2] it was 2.8 µM (inactive); in [3], 1.58 µM (inactive); in [4] it was < 0.01 µM (active); in assay [5], 0.153 µM (active); in [6], < 0.025 µM (active). Also, the 50% growth inhibitory concentration (GI50) in assay [7] was 0.0305 µM (active); in [8], < 0.01 µM (active); in [9], 0.176 µM (active); in assay [10], 0.0448 µM (active); in assay [11], < 0.01 µM (active); in assay [14] it was < 0.01 µM (active). For the same molecule, the GI50 in [15] is 1.14 µM (inactive); in assay [16], < 0.0118 µM (active); in assay [19] it was < 0.0447 µM (active); in assay [17], < 0.0275 µM (active); in assay [18], 0.0403 µM (active).
For `CCc1cccc(C(C)C)c1NC(=O)C(=O)Nn1c(S)nc2ccccc2c1=O`, the GI50 in [1], in assay [2], in assay [4], in assay [5], in assay [6] and in assay [7] was > 100 µM (inactive) in each case. The GI50 in assay [8], in [9], in [10], in assay [11], in [12] and in [13] was > 100 µM (inactive) in each case. Besides, the GI50 in assay [14], in assay [15], in [16], in assay [19], in [17] and in assay [18] was > 100 µM (inactive) each time.
`CC(=O)O[C@H]1/C(=C/c2ccc(N(C)C)cc2)C[C@H]2[C@@H]3CC=C4C[C@@H](N5CCCC5)CC[C@]4(C)[C@H]3CC[C@]12C`: the GI50 was > 100 µM (inactive) in assay [1]; > 100 µM (inactive) in [2]; > 100 µM (inactive) in [3]; > 100 µM (inactive) in assay [4]; > 100 µM (inactive) in assay [5]; 35.6 µM (inactive) in assay [7]. Moreover, the GI50 in assay [8], in assay [10], in [12], in assay [13], in [14] and in [15] was > 100 µM (inactive) in each case. In addition, the GI50 in [16] is > 100 µM (inactive); in assay [19], 65.6 µM (inactive); in assay [17], > 100 µM (inactive); in [18] it was > 100 µM (inactive).

Source of the values: ChEMBL document CHEMBL1201862, “PubChem BioAssay data set” (2004).
